Columns and labels:
ladysthumb smartweed = test: Test C postemergence ladysthumb smartweed; type: in vivo, Polygonum persicaria; conditions: 0 to 100 scale, 0 no effect, 100 complete control
Method: Compounds evaluated in this test were formulated in a non-phytotoxic solvent mixture which included a surfactant and applied to plants that were grown for various periods of time before treatment (postemergence application). A mixture of sandy loam soil and greenhouse potting mix in a 60:40 ratio was used for the postemergence test.
Plantings of these crops and weed species were adjusted to produce plants of appropriate size for the postemergence test. All plant species were grown using normal greenhouse practices. […]
Treated plants and untreated controls were maintained in a greenhouse for approximately 14, to 21 days, after which all treated plants were compared to untreated controls and visually evaluated. […]

scentless chamomile = test: Test E scentless chamomile; type: in vivo, Matricaria inodora; conditions: Preemergence
Green foxtail = test: Test D green foxtail; type: in vivo; conditions: Preemergence, 0 to 100 scale
From the text: (§1) Seeds, tubers, or plant parts of Alexandergrass (Brachiaria plantaginea), bermuda-grass (Cynodon dactylon), common pursiane (Portulaca oleracea), common ragweed (Ambrosia elatior), common groundsel (Senecio vulgaris), dallisgrass (Paspalum dilatatum), goosegrass (Eleusine indica), guineagrass (Panicum maximum), itchgrass (Rottboellia exaltata), Johnson grass (Sorghum halepense), large crabgrass (Digitaria sanguinalis), pitted morningglory (Ipomoea lacunosa), purple nutsedge (Cyperus rotundus), sandbur (Cenchrus echinatus), sourgrass (Trichachne insularis), Spanishneedles (Bidens bipinnata), surinam grass (Brachiaria decumbens) and tall mallow (Malva sylvestris) were planted into greenhouse pots of flats containing greenhouse planting medium. Plant species were grown in separate pots or individual compartments. Preemergence applications were made within one day of planting the seed or plant part.
Test chemicals were formulated in a non-phytotoxic solvent mixture which included a surfactant and applied preemergence to the surface of the pot containing seeds in a sandy loam soil. Untreated control pots and treated pots were placed in the greenhouse for growth and visually evaluated for injury 14 to 21 days after herbicide application. Plant response ratings, summarized in Table C, are based on a 0 to 100 scale where 0 is no injury and 100 is complete control. […]

sourgrass = test: Test D sourgrass; type: in vivo, Trichachne insularis; conditions: Preemergence, 0 to 100 scale
From the text: as §1
Test chemicals were formulated in a non-phytotoxic solvent mixture which included a surfactant and applied preemergence to the surface of the pot containing seeds in a sandy loam soil. Untreated control pots and treated pots were placed in the greenhouse for growth and visually evaluated for injury 14 to 21 days after herbicide application. Plant response ratings, summarized in Table C, are based on a 0 to 100 scale where 0 is no injury and 100 is complete control. A dash (−) response means no test result.

Row | Structure (SMILES) | Plant response rating Ladysthumb (ladysthumb smartweed; Rate 140 g/ha) | Plant response rating Ladysthumb (ladysthumb smartweed; Rate 560 g/ha) | Plant response rating, Scentless chamo (scentless chamomile; Rate 62 g/ha, 0 to 100 scale, 0 no effect, 100 complete control) | Plant response rating, Scentless chamo (scentless chamomile; Rate 125 g/ha, 0 to 100 scale (0 no effect, 100 complete control)) | Plant response rating, Scentless chamo (scentless chamomile; Rate 250 g/ha, 0 to 100 scale) | Plant response rating, Green foxtail (Green foxtail; Rate 250 g/ha) | Plant response rating, Green foxtail (Green foxtail; Rate 500 g/ha) | Plant response rating, Sourgrass (sourgrass; Rate 32 g/ha, 0 no injury, 100 complete control) | Sourgrass plant response rating (sourgrass; Rate 64 g/ha, 0 no injury, 100 complete control) | Sourgrass plant response rating (sourgrass; Rate 125 g/ha, 0 no injury, 100 complete control) | Plant response rating, Sourgrass (sourgrass; Rate 250 g/ha)
1 | CCn1c(=O)on(C(=O)N(c2ccc(F)cc2)C(C)C)c1=O [Compound 107] | 0 | 30 | 70 | 80 | 90 | 100 | 100 |  |  |  | 
2 | Cc1cccc(C)c1-n1c(=O)on(C(=O)N(c2ccc(F)cc2F)C(C)C)c1=O [Compound 28] |  |  |  |  |  |  |  | 60 | 85 | 100 | 100
